From patent publication US20210395210A1, “INHIBITION OF BACTERIAL CHAPERONIN SYSTEMS” (THE TRUSTEES OF INDIANA UNIVERSITY, priority 2018, published 2021)

Assays:
native Rho (rhodanese) = target: T1, native Rho (rhodanese) (Bos taurus, UniProt P00586); assay: Counter-screen for inhibition of native rhodanese enzymatic activity; assay type: biochemical; conditions: for log(IC50) Native Rho Reporter: log of IC50 (μM scale), with standard deviation; for IC50: read-out: Biochemical Assay IC50 Native Rho Reporter; for inhibition of native Rho enzymatic activity (in words): false-positive counter-screen
T1 construct: purchased Roche (so in the source) R1756
T1 sequence (P00586 1-297): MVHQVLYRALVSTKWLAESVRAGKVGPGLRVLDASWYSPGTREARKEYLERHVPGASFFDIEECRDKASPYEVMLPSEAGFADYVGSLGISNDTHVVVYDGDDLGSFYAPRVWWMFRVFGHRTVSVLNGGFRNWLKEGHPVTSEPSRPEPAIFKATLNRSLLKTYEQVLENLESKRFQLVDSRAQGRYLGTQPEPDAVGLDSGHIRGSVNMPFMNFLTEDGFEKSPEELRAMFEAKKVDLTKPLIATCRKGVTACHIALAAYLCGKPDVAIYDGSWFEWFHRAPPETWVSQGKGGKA
Experimental: Reagent Preparations & Assay Protocol: Reagents were identical to those used in the GroEUES-dRho refolding assay described above; however, the assay protocol differed in the sequence of compound addition to the wells. Compounds were pin-transferred after the 60 minute incubation for the refolding cycle, but prior to the addition of the thiocyanate enzymatic assay stock. Thus, the refolding reactions were allowed to proceed for 60 min at 37° C. in the absence of test compounds, but the enzymatic activity of the refolded rhodanese reporter enzyme was monitored in the presence of test compounds (inhibitor concentration range during the enzymatic reporter reaction is 100 µM to 46 nM-3-fold dilutions). IC50 values for the rhodenase reporter enzyme were determined as described above. Results presented represent the averages of IC50 values obtained from at least quadriplicate (duplicate of duplicate) replicates.

HEK 293 kidney cells = assay: Kidney cell viability assay (Alamar Blue); conditions: read-out: Human Cell Viability CC50, Kidney (HEK 293); HEK 293 kidney cells, Alamar Blue, 48 h
Experimental: HEK 293 cells were maintained in MEM medium (Corning Cellgro, 10-009 CV) supplemented with 10% FBS (Sigma, F2242). […] Cells at 80% confluence were harvested and diluted in growth medium, then 45 μL of the THLE-3 cells (1,500 cells/well) or HEK 293 cells (1,500 cells/well) were dispensed per well, and plates were sealed with “Breathe Easy” oxygen permeable membranes (Diversified Biotech) and incubated at 37° C., 5% CO2, for 24 h.

SMILES | log(IC50) Native Rho Reporter (native Rho (rhodanese)) | IC50 (native Rho (rhodanese)) [µM] | inhibition of native Rho enzymatic activity (in words) (native Rho (rhodanese)) | CC50 (HEK 293 kidney cells) [µM]
O=C(Nc1ccccc1)c1cccc(Br)c1 [Compound 27, 3-Bromo-N-phenylbenzamide] | >2 | > 100 | – | –
O=C(Nc1ccc(Sc2nc3ccccc3s2)c(Cl)c1)c1ccccc1 [Compound 19, N-(4-(Benzo[d]thiazol-2-ylthio)-3-chlorophenyl)benzamide] | – | > 100 | – | –
O=C(Nc1cccc(Cl)c1)c1cc(Br)cc(Br)c1 [Compound 23, 3,5-Dibromo-N-(3-chlorophenyl)benzamide] | >2 | > 100 | – | –
COc1ccc(Br)cc1C(=O)Nc1cccc(Cl)c1 [Compound 39, 5-Bromo-N-(3-chlorophenyl)-2-methoxybenzamide] | >2 | > 100 | – | –
O=C(Nc1ccccc1)c1cccc(Br)c1O [Compound 14, 3-Bromo-2-hydroxy-N-phenylbenzamide] | >2 | > 100 | – | –
COc1c(Br)cc(Br)cc1C(=O)Nc1ccc(Sc2nc3ccccc3s2)c(Cl)c1 [Compound 29, N-(4-(Benzo[d]thiazol-2-ylthio)-3-chlorophenyl)-3,5-dibromo-2-methoxybenzamide] | – | > 100 | – | –
COc1c(Br)cccc1C(=O)Nc1ccccc1 [Compound 42, 3-Bromo-2-methoxy-N-phenylbenzamide] | >2 | > 100 | – | –
O=C(Nc1ccc(Sc2nc3ccccc3s2)cc1)c1cc(Br)cc(Br)c1 [Compound 20, N-(4-(Benzo[d]thiazol-2-ylthio)phenyl)-3,5-dibromobenzamide] | – | > 100 | – | –
O=C(Nc1ccc(Sc2nc3ccccc3s2)c(Cl)c1)c1ccccc1O [Compound 4, N-(4-(Benzo[d]thiazol-2-ylthio)-3-chlorophenyl)-2-hydroxybenzamide] | – | > 100 | – | –
COc1ccccc1C(=O)Nc1cccc(Cl)c1 [Compound 40, N-(3-Chlorophenyl)-2-methoxybenzamide] | >2 | > 100 | – | –
COc1ccccc1C(=O)Nc1ccccc1 [Compound 44, 2-Methoxy-N-phenylbenzamide] | >2 | > 100 | – | –
O=C(Nc1ccc(Sc2nc3ccccc3s2)c(Cl)c1)c1cc(Br)cc(Br)c1 [Compound 17, N-(4-(Benzo[d]thiazol-2-ylthio)-3-chlorophenyl)-3,5-dibromobenzamide] | – | > 100 | – | –
O=C(Nc1ccc(Sc2nc3ccccc3s2)cc1)c1cc(Br)ccc1O [Compound 7, N-(4-(Benzo[d]thiazol-2-ylthio)phenyl)-5-bromo-2-hydroxybenzamide] | – | > 100 | inactive against the reporter enzymes | –
O=C(Nc1ccc(Sc2nc3ccccc3s2)c(Cl)c1)c1cccc(Br)c1 [Compound 18, N-(4-(Benzo[d]thiazol-2-ylthio)-3-chlorophenyl)-3-bromobenzamide] | – | > 100 | – | –
O=C(Nc1ccc(Sc2nc3ccccc3s2)cc1)c1cccc(Br)c1O [Compound 6, N-(4-(Benzo[d]thiazol-2-ylthio)phenyl)-3-bromo-2-hydroxybenzamide] | – | – | inactive against the reporter enzymes | –
O=C(Nc1ccccc1)c1cc(Br)ccc1O [Compound 15, 5-Bromo-2-hydroxy-N-phenylbenzamide] | >2 | > 100 | – | –
COc1ccc(Br)cc1C(=O)Nc1ccc(Sc2nc3ccccc3s2)cc1 [Compound 35, N-(4-(Benzo[d]thiazol-2-ylthio)phenyl)-5-bromo-2-methoxybenzamide] | – | > 100 | – | –

SMILES | log(IC50) Native Rho Reporter (native Rho (rhodanese)) | IC50 (native Rho (rhodanese)) [µM] | inhibition of native Rho enzymatic activity (in words) (native Rho (rhodanese)) | CC50 (HEK 293 kidney cells) [µM]
O=C(Nc1ccc(Sc2nc3ccccc3s2)cc1)c1cccc(Br)c1 [Compound 21, N-(4-(Benzo[d]thiazol-2-ylthio)phenyl)-3-bromobenzamide] | – | > 100 | – | –
COc1c(Br)cc(Br)cc1C(=O)Nc1cccc(Cl)c1 [Compound 37, 3,5-Dibromo-N-(3-chlorophenyl)-2-methoxybenzamide] | >2 | > 100 | – | –
COc1ccc(Br)cc1C(=O)Nc1ccc(Sc2nc3ccccc3s2)c(Cl)c1 [Compound 31, N-(4-(Benzo[d]thiazol-2-ylthio)-3-chlorophenyl)-5-bromo-2-methoxybenzamide] | – | > 100 | – | –
O=C(Nc1cccc(Cl)c1)c1cccc(Br)c1 [Compound 24, 3-Bromo-N-(3-chlorophenyl)benzamide] | >2 | > 100 | – | –
COc1ccccc1C(=O)Nc1ccc(Sc2nc3ccccc3s2)cc1 [Compound 36, N-(4-(Benzo[d]thiazol-2-ylthio)phenyl)-2-methoxybenzamide] | – | > 100 | – | –
COc1c(Br)cc(Br)cc1C(=O)Nc1ccccc1 [Compound 41, 3,5-Dibromo-2-methoxy-N-phenylbenzamide] | >2 | > 100 | – | –
O=C(Nc1cccc(Cl)c1)c1ccccc1 [Compound 25, N-(3-Chlorophenyl)benzamide] | >2 | > 100 | – | –
COc1c(Br)cccc1C(=O)Nc1cccc(Cl)c1 [Compound 38] | >2 | > 100 | – | –
O=C(Nc1ccc(Sc2nc3ccccc3s2)c(Cl)c1)c1cc(Br)ccc1O [Compound 3, N-(4-(Benzo[d]thiazol-2-ylthio)-3-chlorophenyl)-5-bromo-2-hydroxybenzamide] | – | > 100 | inactive against the reporter enzymes | –
O=C(Nc1ccc(Sc2nc3ccccc3s2)cc1)c1ccccc1 [Compound 22, N-(4-(Benzo[d]thiazol-2-ylthio)phenyl)benzamide] | – | > 100 | – | –
COc1ccc(Br)cc1C(=O)Nc1ccccc1 [Compound 43, 5-Bromo-2-methoxy-N-phenylbenzamide] | >2 | > 100 | – | –
O=C(Nc1cccc(Cl)c1)c1ccccc1O [Compound 12, N-(3-Chlorophenyl)-2-hydroxybenzamide] | >2 | > 100 | – | –
Cc1cc(C(C#N)c2ccc(Cl)cc2)c(Cl)cc1NC(=O)c1cc(I)cc(I)c1O (centres unmarked) [Closantel, closantel, reference compound] | >2 | > 100 | – | 75
COc1c(Br)cc(Br)cc1C(=O)Nc1ccc(Sc2nc3ccccc3s2)cc1 [Compound 33, N-(4-(Benzo[d]thiazol-2-ylthio)phenyl)-3,5-dibromo-2-methoxybenzamide] | – | > 100 | – | –
COc1ccccc1C(=O)Nc1ccc(Sc2nc3ccccc3s2)c(Cl)c1 [Compound 32, N-(4-(Benzo[d]thiazol-2-ylthio)-3-chlorophenyl)-2-methoxybenzamide] | – | > 100 | – | –
O=C(Nc1ccccc1)c1cc(Br)cc(Br)c1 [Compound 26, 3,5-Dibromo-N-phenylbenzamide] | >2 | > 100 | – | –
